Experimental data published in patent US20250382344A1, “Soluble GLP1/GIP/NPY2 Receptor Triple Agonists” (Boehringer Ingelheim International GmH, priority 2024, published 2025).

What was measured:
[1] = Solubility in 0.1 M phosphate buffer at pH 7; type: physicochemical; conditions: 0.1 M phosphate buffer at pH 7, 10 mg/mL final peptide concentration, shaking 2 hours at room temperature, peptides as TFA-salts; measured sample pH 6.5-7.0; read-out: Solubility
[2] = Mouse PK after intravenous application; type: in vivo; conditions: plasma, male NMRI mice, intravenous 30-60 nmol/kg, non-compartmental analysis
Method: Pharmacokinetic parameters of the peptides were determined after intravenous application to NMRI mice (Naval Medical Research Institute mice). Male NMRI mice were obtained from Janvier Laboratories (France) weighing 30 g to 40 g. Mice were housed in standard cages with a 12:12 hours light:dark cycle and standard food and water access ad libitum. Each test peptide was dissolved in 50 mM phosphate buffer (pH 7.4)/3.5% mannitol. Intravenous application of 30-60 nmol/kg was performed via the tail vein. Serial blood samples from conscious mice were collected from the saphenous vein in EDTA-containing vials at different time points up to 56 hours post-dosing. Subsequently, plasma was prepared by centrifugation for 5 minutes at approximately 5000 rpm and stored at −20° C. until quantification of the peptide plasma levels by liquid chromatography mass spectrometry (LC-MS). Individual plasma concentration-time profiles were analysed by a non-compartmental approach and the resulting pharmacokinetic parameters were calculated.

solubility [1]: 4700 µg/mL
MRT [2]: 7.5 h
SMILES: CC[C@H](C)[C@H](NC(=O)[C@H](CC(C)C)NC(=O)[C@H](Cc1c[nH]cn1)NC(=O)[C@H](CCCNC(=N)N)NC(=O)[C@@H](NC(=O)[C@H](Cc1ccccc1)NC(=O)[C@H](C)NC(=O)C(C)(C)NC(=O)[C@H](CCC(N)=O)NC(=O)[C@H](C)NC(=O)[C@H](CCC(N)=O)NC(=O)[C@H](CCCCN)NC(=O)[C@H](CCC(=O)O)NC(=O)[C@H](CC(C)C)NC(=O)C(C)(C)NC(=O)[C@@H](NC(=O)[C@H](CO)NC(=O)[C@H](Cc1ccc(O)cc1)NC(=O)[C@H](CC(=O)O)NC(=O)[C@H](CO)NC(=O)[C@@H](NC(=O)[C@H](Cc1ccccc1)NC(=O)[C@@H](NC(=O)CNC(=O)[C@H](CCC(=O)O)NC(=O)C(C)(C)NC(=O)[C@@H](N)Cc1ccc(O)cc1)[C@@H](C)O)[C@@H](C)O)[C@@H](C)CC)C(C)C)C(=O)N[C@@H](CC(N)=O)C(=O)N[C@@H](CCCCNC(=O)CCCCCNC(=O)CC[C@H](NC(=O)CC[C@H](NC(=O)CC[C@H](NC(=O)CC[C@H](NC(=O)CC[C@H](NC(=O)CC[C@H](NC(=O)CCCCCCCCCCCCCCCCC(=O)O)C(=O)O)C(=O)O)C(=O)O)C(=O)O)C(=O)O)C(=O)O)C(=O)NC(C)(C)C(=O)N[C@H](C(=O)N[C@@H](CCCNC(=N)N)C(=O)N[C@@H](CCC(N)=O)C(=O)N[C@@H](CCCNC(=N)N)C(=O)N[C@@H](Cc1ccc(O)cc1)C(N)=O)[C@@H](C)O [Compound 9, Y-Aib-E-G-T-F-T-S-D-Y-S-I-Aib-L-E-K-Q-A-Q-Aib-A-F-V-R-H-L-I-N-K(1,3)-Aib-T-R-Q-R-Y-NH2.C18DA-gGlu-gGlu-gGlu-gGlu-gGlu-gGlu-AHX(1,2)]
